From patent US5688666A, “Growth hormone variants with altered binding properties” (Genentech, Inc., priority 1994, dated 1997)

Legend:
[1] = target: anti-β endorphin monoclonal antibody; conditions: cited from earlier work
[2] = target: Mab 1 (monoclonal antibody to hGH); assay: Binding of Mab 1 to hGH and hGH phagemid particles (ELISA); conditions: read-out: IC50 (concentration to give half-maximal binding to the Mab)
Procedure: (§1) After 2 hours at room temperature (rt), the plates were washed well and the indicated Mab (Cunningham et al. supra) was added at 1 μg/ml in buffer A for 2 hours at rt. Following washing, horseradish peroxidase conjugated goat anti-mouse IgG antibody was bound at rt for 1 hour. After a final wash, the peroxidase activity was assayed with the substrate, o-phenylenediamine.

[3] = target: Mab 3 (monoclonal antibody to hGH); assay: Binding of Mab 3 to hGH and hGH phagemid particles (ELISA); conditions: read-out: IC50 (concentration to give half-maximal binding to the Mab)
Procedure: as §1

[4] = target: Mab 8 (monoclonal antibody to hGH); assay: Binding of Mab 8 to hGH and hGH phagemid particles (ELISA); conditions: read-out: IC50 (concentration to give half-maximal binding to the Mab)
Procedure: as §1

[5] = target: Mab 6 (monoclonal antibody to hGH); assay: Binding of Mab 6 to hGH and hGH phagemid particles (ELISA); conditions: read-out: IC50 (concentration to give half-maximal binding to the Mab)
Procedure: as §1

[6] = target: Mab 4 (monoclonal antibody to hGH); assay: Binding of Mab 4 to hGH and hGH phagemid particles (ELISA); conditions: read-out: IC50 (concentration to give half-maximal binding to the Mab)
Procedure: as §1

[7] = target: Mab 7 (monoclonal antibody to hGH); assay: Binding of Mab 7 to hGH and hGH phagemid particles (ELISA); conditions: read-out: IC50 (concentration to give half-maximal binding to the Mab)
Procedure: as §1

[8] = target: Mab 2 (monoclonal antibody to hGH); assay: Binding of Mab 2 to hGH and hGH phagemid particles (ELISA); conditions: read-out: IC50 (concentration to give half-maximal binding to the Mab)
Procedure: as §1

[9] = target: Mab 5 (monoclonal antibody to hGH); assay: Binding of Mab 5 to hGH and hGH phagemid particles (ELISA); conditions: read-out: IC50 (concentration to give half-maximal binding to the Mab)
Procedure: as §1

Row | Substance | Kd [1] | IC50 [2] | IC50 [3] | IC50 [4] | IC50 [5] | IC50 [6] | IC50 [7] | IC50 [8] | IC50 [9]
1 | β-endorphin peptide: parent β-endorphin peptide sequence recognised by the anti-β endorphin monoclonal antibody | ~7 nM | – | – | – | – | – | – | – | –
2 | Human growth hormone [hGH] | – | 0.4 nM | 0.2 nM | 0.1 nM | 0.07 nM | 0.1 nM | 0.1 nM | 0.04 nM | 0.2 nM
